pIC50: −log10 of the molar value.
Tests used:
TIE2 = TIE2 (Homo sapiens, UniProt Q02763); assay: Inhibition of TIE2 (flashplate assay); format: biochemical; conditions: flashplate method
In short: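 Radiometric flashplate kinase assay: TIE2 incubated 3 h at room temperature with ³³P-ATP and biotinylated poly(Glu,Tyr) 4:1, with or without test compound. Reaction stopped with EDTA, wells washed, incorporated radioactivity counted by scintillation; IC50 calculated from the data.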

[1] = target: T1, FAK (focal adhesion kinase) (Homo sapiens, UniProt Q05397); assay: Inhibition of FAK (ELISA assay), FAK phosphorylation in cells; format: cell-based; conditions: human cells with FAK amplification
T1 construct: endogenous in cells; host or cells: Calu-6 or HT-29
T1 sequence (Q05397 whole entry): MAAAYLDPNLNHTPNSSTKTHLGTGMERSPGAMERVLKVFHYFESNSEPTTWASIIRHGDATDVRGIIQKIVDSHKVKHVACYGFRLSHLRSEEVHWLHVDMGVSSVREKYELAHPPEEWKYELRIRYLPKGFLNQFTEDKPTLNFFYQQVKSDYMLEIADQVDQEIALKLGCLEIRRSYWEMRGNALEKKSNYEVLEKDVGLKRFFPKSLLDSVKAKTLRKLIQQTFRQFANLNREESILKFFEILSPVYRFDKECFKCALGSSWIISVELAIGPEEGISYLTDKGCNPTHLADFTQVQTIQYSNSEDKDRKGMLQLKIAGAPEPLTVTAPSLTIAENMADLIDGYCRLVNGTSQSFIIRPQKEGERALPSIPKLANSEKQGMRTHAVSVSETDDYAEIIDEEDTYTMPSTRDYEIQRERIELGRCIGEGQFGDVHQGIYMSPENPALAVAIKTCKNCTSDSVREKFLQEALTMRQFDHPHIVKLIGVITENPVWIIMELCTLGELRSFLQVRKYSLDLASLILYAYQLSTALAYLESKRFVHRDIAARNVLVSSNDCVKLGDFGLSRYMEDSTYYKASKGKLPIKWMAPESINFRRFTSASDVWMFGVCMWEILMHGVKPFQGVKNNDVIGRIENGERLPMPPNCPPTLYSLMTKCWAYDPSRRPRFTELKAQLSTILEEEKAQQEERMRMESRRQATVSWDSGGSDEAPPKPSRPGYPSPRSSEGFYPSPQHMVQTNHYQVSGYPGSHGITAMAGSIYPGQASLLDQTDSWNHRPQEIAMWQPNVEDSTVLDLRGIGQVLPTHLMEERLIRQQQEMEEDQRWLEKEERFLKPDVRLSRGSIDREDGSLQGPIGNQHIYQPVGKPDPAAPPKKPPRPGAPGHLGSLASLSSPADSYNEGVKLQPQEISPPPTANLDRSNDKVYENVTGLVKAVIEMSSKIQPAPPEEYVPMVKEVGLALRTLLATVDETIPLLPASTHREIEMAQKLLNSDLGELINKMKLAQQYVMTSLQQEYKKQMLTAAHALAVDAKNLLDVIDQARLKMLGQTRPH
In short: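 Cells pretreated 45 min with increasing compound concentrations, with a reference inhibitor series as internal control. FAK from lysates captured by specific antibody on ELISA plate or LUMINEX beads; tyrosine phosphorylation detected with anti-phosphotyrosine antibody by chemiluminescence or fluorescence.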

TGFβR1 = target: T2, TGFβR1 (Homo sapiens, UniProt P36897); assay: Inhibition of TGFβR1 (flashplate assay); format: biochemical; conditions: flashplate method
T2 sequence (P36897 34-503): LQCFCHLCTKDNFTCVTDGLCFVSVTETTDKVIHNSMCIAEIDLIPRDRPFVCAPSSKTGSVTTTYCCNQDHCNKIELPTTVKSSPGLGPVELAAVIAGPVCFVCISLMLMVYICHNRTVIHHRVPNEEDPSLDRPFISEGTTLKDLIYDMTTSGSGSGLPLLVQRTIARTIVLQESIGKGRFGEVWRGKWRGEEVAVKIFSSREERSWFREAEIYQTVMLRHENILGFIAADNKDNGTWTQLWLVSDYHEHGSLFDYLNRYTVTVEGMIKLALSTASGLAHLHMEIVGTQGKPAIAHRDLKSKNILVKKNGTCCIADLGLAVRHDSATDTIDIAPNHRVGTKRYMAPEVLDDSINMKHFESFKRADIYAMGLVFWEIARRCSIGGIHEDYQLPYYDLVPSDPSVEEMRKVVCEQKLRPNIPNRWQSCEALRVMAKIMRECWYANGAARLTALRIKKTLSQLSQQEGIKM
In short: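 Kinase was incubated 45 min with 33P-ATP and biotinylated substrate, with or without test substances, then stopped with EDTA. Incorporated radioactivity was counted by scintillation in a flashplate format. IC50 values were calculated from the counts.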

FAK = FAK (Homo sapiens, UniProt Q05397); assay: Inhibition of FAK (flashplate assay); format: biochemical; conditions: flashplate method
Chain of FAK (Q05397 whole entry, species assumed): as the sequence (Q05397 whole entry) above
Procedure: (§1) The test plates used are 384-well flashplate microtitre plates from Perkin Elmer (USA). The components of the kinase reaction are pipetted into the assay plate. The FAK kinase is incubated for 3 hr. with radioactively labelled ^33P-ATP in the presence and absence of test substances in a total volume of 100 μl at room temperature together with biotinylated poly(Glu, Tyr)4:1. The reaction is terminated using 25 μl of a 200 mM EDTA solution. After incubation for a further 30 min at room temperature, the supernatants are removed by suction, and the wells are washed three times with 100 μl of 0.9% NaCl solution each time. The radioactivity is measured using a Topcount scintillation counter (PerkinElmer, USA). IC50 values are calculated using the RS1 computer program.

SGK1 = target: T3, SGK1 (Homo sapiens, UniProt O00141); assay: Inhibition of SGK1 (flashplate assay); format: biochemical; conditions: flashplate method
T3 sequence (O00141 1-431): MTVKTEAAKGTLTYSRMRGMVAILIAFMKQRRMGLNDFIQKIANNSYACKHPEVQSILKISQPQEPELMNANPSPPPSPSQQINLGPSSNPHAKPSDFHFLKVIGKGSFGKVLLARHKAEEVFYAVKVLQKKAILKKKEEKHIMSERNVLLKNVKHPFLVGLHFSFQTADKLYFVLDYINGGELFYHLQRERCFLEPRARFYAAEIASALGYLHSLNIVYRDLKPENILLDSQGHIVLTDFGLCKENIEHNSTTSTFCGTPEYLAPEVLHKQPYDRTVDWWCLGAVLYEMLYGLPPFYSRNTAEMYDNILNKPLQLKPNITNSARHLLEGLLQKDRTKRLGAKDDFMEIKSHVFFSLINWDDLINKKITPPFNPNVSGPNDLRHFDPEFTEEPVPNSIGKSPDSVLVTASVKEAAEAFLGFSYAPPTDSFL
Procedure: as §1, with “SGK1” for “FAK”

Chain of TIE2 (Q02763 23-1124, species assumed): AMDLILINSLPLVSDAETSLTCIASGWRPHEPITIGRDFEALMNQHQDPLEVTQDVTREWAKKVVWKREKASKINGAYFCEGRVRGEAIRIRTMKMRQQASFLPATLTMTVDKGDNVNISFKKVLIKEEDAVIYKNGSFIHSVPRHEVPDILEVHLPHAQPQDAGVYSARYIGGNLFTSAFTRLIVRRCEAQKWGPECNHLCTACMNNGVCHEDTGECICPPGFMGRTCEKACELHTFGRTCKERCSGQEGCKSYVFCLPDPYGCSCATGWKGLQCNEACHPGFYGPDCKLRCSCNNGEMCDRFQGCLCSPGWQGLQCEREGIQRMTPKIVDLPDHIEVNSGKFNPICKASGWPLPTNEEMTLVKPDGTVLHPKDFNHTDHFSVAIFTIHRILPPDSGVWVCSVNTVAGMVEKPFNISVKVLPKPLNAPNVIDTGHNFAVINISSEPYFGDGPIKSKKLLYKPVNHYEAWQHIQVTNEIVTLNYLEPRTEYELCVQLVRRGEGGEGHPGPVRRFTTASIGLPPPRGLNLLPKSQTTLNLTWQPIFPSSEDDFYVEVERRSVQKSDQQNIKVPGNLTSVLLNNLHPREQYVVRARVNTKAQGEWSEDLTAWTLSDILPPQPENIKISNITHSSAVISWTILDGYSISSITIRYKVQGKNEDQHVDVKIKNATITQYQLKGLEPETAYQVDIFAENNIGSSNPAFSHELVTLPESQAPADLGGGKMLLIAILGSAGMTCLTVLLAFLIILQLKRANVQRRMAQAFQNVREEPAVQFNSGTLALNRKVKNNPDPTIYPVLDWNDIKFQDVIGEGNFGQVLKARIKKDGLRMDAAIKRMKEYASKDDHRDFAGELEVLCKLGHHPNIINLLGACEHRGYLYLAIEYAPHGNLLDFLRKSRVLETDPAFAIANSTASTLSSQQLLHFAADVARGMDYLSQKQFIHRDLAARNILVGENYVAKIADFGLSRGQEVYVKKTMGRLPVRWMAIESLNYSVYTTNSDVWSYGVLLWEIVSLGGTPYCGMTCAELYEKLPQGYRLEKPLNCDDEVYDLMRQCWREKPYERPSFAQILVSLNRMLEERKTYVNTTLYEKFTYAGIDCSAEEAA

Row | pIC50 (TIE2) | pIC50 [1] | pIC50 (TGFβR1) | pIC50 (FAK) | pIC50 (SGK1) | SMILES
1 | 6.28 | 7.11 | 6.92 | 5.74 | – | Nc1ncnc2c1c(-c1cccc(O)c1)cn2C1CC(CN2CCCC2)C1 (centres unmarked) [Compound 1, 3-[4-amino-7-(3-pyrrolidin-1-ylmethylcyclobutyl)-7H-pyrrolo[2,3-d]pyrimidin-5-yl]phenol]
2 | 6.06 | 6.59 | 6.85 | 5.57 | 5.13 | Nc1ncnc2c1c(-c1cccc(O)c1)cn2C1CC(CN2CCCC2)C1 (centres unmarked) [Compound 2, 3-[4-Amino-7-(3-pyrrolidin-1-ylmethylcyclobutyl)-7H-pyrrolo[2,3-d]pyrimidin-5-yl]phenol]
3 | 6.42 | 6.43 | 6.74 | 5.10 | – | NCC1CC(n2cc(-c3ccc4[nH]ccc4c3)c3c(N)ncnc32)C1 (centres unmarked) [Compound 3, 7-(3-Aminomethylcyclobutyl)-5-(1H-indol-5-yl)-7H-pyrrolo[2,3-d]pyrimidin-4-ylamine]
4 | 5.96 | 5.21 | 6.68 | – | 5.21 | NCC1CC(n2cc(-c3cc4ccccc4o3)c3c(N)ncnc32)C1 (centres unmarked) [Compound 37]
